Reference: patent publication US20240207427A1, “SELECTIVE DRUG RELEASE FROM INTERNALIZED CONJUGATES OF BIOLOGICALLY ACTIVE COMPOUNDS” (priority 2021, published 2024)
Where two headings read alike, the source gives them in different places.

What was measured:
Type in all cases: cell-based
[1] = tested on: Ls174T cells; assay: In vitro potency (CellTiter-Glo, 96 h), Ls174T; settings: Homo sapiens
Method in brief: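 Four-day continuous exposure at 37 °C to serially diluted ADC or free camptothecin payload, in RPMI 1640 with 20% FBS after 24 h pre-plating. Luminescent signal gave IC50 (ng/mL; nmol/L).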

[2] = tested on: renal carcinoma cells (786-O); assay: In vitro potency (CellTiter-Glo, 96 h), 786-O; settings: Homo sapiens, 786-0, 96 h
Method in brief: (§1)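 IC50 (ng/mL or nmol/L) derived from CellTiter-Glo luminescence after 96 h exposure at 37 °C to serial dilutions of ADC or CPT free drug. Log-phase cells had been plated 24 h beforehand in RPMI 1640 containing 20% FBS.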

[3] = tested on: anaplastic large cell lymphoma cells (DEL); assay: In vitro potency (CellTiter-Glo, 96 h), DEL
Method in brief: (§2)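 Growth inhibition after 96 h at 37 °C with test article, measured by luminescence; cells in RPMI 1640, 20% FBS.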

[4] = tested on: melanoma cells (A2058); assay: In vitro potency (CellTiter-Glo, 96 h), A2058; settings: Homo sapiens, A2058, 96 h
Method in brief: as §1

[5] = tested on: anaplastic large cell lymphoma cells (Karpas299); assay: In vitro potency (CellTiter-Glo, 96 h), Karpas299; settings: Homo sapiens, KARPAS-299, 96 h
Method in brief: as §1

[6] = tested on: pancreatic cancer cells (BxPC3); assay: In vitro potency (CellTiter-Glo, 96 h), BxPC3; settings: Homo sapiens, BXPC-3, 96 h
Method in brief: (§3)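 Seed log-phase cells 24 h (RPMI 1640, 20% FBS); add ADC serial dilutions; incubate 96 h, 37 °C; read luminescence; IC50 in ng/mL.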

[7] = tested on: Hodgkin's lymphoma cells (L540cy); assay: In vitro potency (CellTiter-Glo, 96 h), L540cy
Method in brief: as §1

[8] = tested on: non-small-cell lung cancer cells (Calu1); assay: In vitro potency (CellTiter-Glo, 96 h), Calu1; settings: Homo sapiens, Calu-1, 96 h
Method in brief: as §1

[9] = tested on: B-lymphocyte cancer cells (SU-DHL4); assay: In vitro potency (CellTiter-Glo, 96 h), SU-DHL-4; settings: Homo sapiens, SU-DHL-4, 96 h
Method in brief: as §2

[10] = tested on: anaplastic large cell lymphoma cells (DELBVR); assay: In vitro potency (CellTiter-Glo, 96 h), DELBVR
Method in brief: as §1

[11] = tested on: breast cancer cells (MDA-MB-231); assay: In vitro potency (CellTiter-Glo, 96 h), MDA-MB-231; settings: Homo sapiens, MDA-MB-231, 96 h
Method in brief: as §1

[12] = tested on: acute myeloid leukemia cells (MOLM-13); assay: In vitro potency (CellTiter-Glo, 96 h), MOLM-13; settings: Homo sapiens, MOLM-13, 96 h
Method in brief: as §3

[13] = LS174T, CPT free drugs, Table 24, CellTiter-Glo after 96 h exposure, read-out: IC50 (nmol/L) Ls174T
[14] = CPT free drugs, Table 24, CellTiter-Glo after 96 h exposure, read-out: IC50 (nmol/L) 786-O
[15] = CPT free drugs, Table 24, CellTiter-Glo after 96 h exposure, read-out: IC50 (nmol/L) DEL
[16] = CPT free drugs, Table 24, CellTiter-Glo after 96 h exposure, read-out: IC50 (nmol/L) A2058
[17] = CPT free drugs, Table 24, CellTiter-Glo after 96 h exposure, read-out: IC50 (nmol/L) Karpas299
[18] = CPT free drugs, Table 24, CellTiter-Glo after 96 h exposure, read-out: IC50 (nmol/L) BxPC3
[19] = CPT free drugs, Table 24, CellTiter-Glo after 96 h exposure, read-out: IC50 (nmol/L) L540cy
[20] = CPT free drugs, Table 24, CellTiter-Glo after 96 h exposure, read-out: IC50 (nmol/L) Calu1
[21] = CPT free drugs, Table 24, CellTiter-Glo after 96 h exposure, read-out: IC50 (nmol/L) SU-DHL-4
[22] = CPT free drugs, Table 24, CellTiter-Glo after 96 h exposure, read-out: IC50 (nmol/L) DELBVR
[23] = CPT free drugs, Table 24, CellTiter-Glo after 96 h exposure, read-out: IC50 (nmol/L) MDAMB231
[24] = CPT free drugs, Table 24, CellTiter-Glo after 96 h exposure, read-out: IC50 (nmol/L) MOLM-13
[25] = LS174T, 96 h, read-out: Ls174T IC50, camptothecin free drug, 96 h
[26] = read-out: 786-O IC50, camptothecin free drug, 96 h
[27] = read-out: DEL IC50, camptothecin free drug, 96 h
[28] = read-out: Karpas299 IC50, camptothecin free drug, 96 h
[29] = read-out: BxPC3 IC50, camptothecin free drug, 96 h
[30] = read-out: L540cy IC50, camptothecin free drug, 96 h
[31] = read-out: SU-DHL-4 IC50, camptothecin free drug, 96 h
[32] = read-out: DELBVR IC50, camptothecin free drug, 96 h
[33] = read-out: MDAMB231 IC50, camptothecin free drug, 96 h
[34] = read-out: MOLM-13 IC50, camptothecin free drug, 96 h

Row | Structure (SMILES) | IC50 [1, 13] | IC50 [2, 14] | IC50 [3, 15] | IC50 [4, 16] | IC50 [5, 17] | IC50 [6, 18] | IC50 [7, 19] | IC50 [8, 20] | IC50 [9, 21] | IC50 [10, 22] | IC50 [11, 23] | IC50 [12, 24] | IC50 [1, 25] | IC50 [2, 26] | IC50 [3, 27] | IC50 ([4]; read-out: A2058 IC50) | IC50 [5, 28] | IC50 [6, 29] | IC50 [7, 30] | IC50 ([8]; read-out: Calu1 IC50) | further results
1 | CC[C@@]1(O)C(=O)OCc2c1cc1n(c2=O)Cc2c-1nc1cc(F)c(C)c(C3=CCOC3)c1c2CN [Compound 6d] |  |  |  |  |  |  |  |  |  |  |  |  |  |  |  |  |  |  |  |  | IC50 ([1]; Table 28, CPT free drugs, Ls174T cells, 96 h, CellTiter-Glo, read-out: Ls174T IC50): 31 nmol/L; IC50 ([2]; Table 28, CPT free drugs, renal carcinoma cells 786-O, 96 h, CellTiter-Glo, read-out: 786-O IC50): 23 nmol/L; IC50 ([3]; Table 28, CPT free drugs, anaplastic large cell lymphoma cells DEL, CellTiter-Glo, read-out: DEL IC50): 3 nmol/L; IC50 ([4]; Table 28, CPT free drugs, melanoma cells A2058, 96 h, CellTiter-Glo, read-out: A2058 IC50): 13 nmol/L; IC50 ([5]; Table 28, CPT free drugs, anaplastic large cell lymphoma cells Karpas299, 96 h, CellTiter-Glo, read-out: Karpas299 IC50): 12 nmol/L; IC50 ([6]; Table 28, CPT free drugs, pancreatic cancer cells BxPC3, 96 h, CellTiter-Glo, read-out: BxPC3 IC50): 15 nmol/L; IC50 ([7]; Table 28, CPT free drugs, Hodgkin's lymphoma cells L540cy, CellTiter-Glo, read-out: L540cy IC50): 11 nmol/L; IC50 ([8]; Table 28, CPT free drugs, non-small-cell lung cancer cells Calu1, 96 h, CellTiter-Glo, read-out: Calu1 IC50): 43 nmol/L; IC50 ([9]; Table 28, CPT free drugs, B-lymphocyte cancer cells SU-DHL4, 96 h, CellTiter-Glo, read-out: SU-DHL-4 IC50): 4 nmol/L; IC50 ([10]; Table 28, CPT free drugs, anaplastic large cell lymphoma cells DELBVR, CellTiter-Glo, read-out: DELBVR IC50): 12 nmol/L; IC50 ([11]; Table 28, CPT free drugs, breast cancer cells MDA-MB-231, 96 h, CellTiter-Glo, read-out: MDAMB231 IC50): 21 nmol/L; IC50 ([12]; Table 28, CPT free drugs, acute myeloid leukemia cells MOLM-13, 96 h, CellTiter-Glo, read-out: MOLM-13 IC50): 6 nmol/L
2 | CC[C@@]1(O)C(=O)OCc2c1cc1n(c2=O)Cc2c-1nc1cc(F)c(O)c3c1c2CNC3 [Compound 3c] | > 1000 nmol/L | > 1000 nmol/L | > 1000 nmol/L | > 1000 nmol/L | > 1000 nmol/L | > 1000 nmol/L | > 1000 nmol/L | > 1000 nmol/L | > 1000 nmol/L | > 1000 nmol/L | > 1000 nmol/L | > 1000 nmol/L |  |  |  |  |  |  |  |  | 
3 | CC[C@@]1(O)C(=O)OCc2c1cc1n(c2=O)Cc2c-1nc1cc3c(cc1c2CNCCCO)OCO3 [Compound 7o] |  |  |  |  |  |  |  |  |  |  |  |  | 25 nmol/L | 52 nmol/L | 10 nmol/L | 16 nmol/L | 42 nmol/L | 47 nmol/L | 26 nmol/L | 839 nmol/L | IC50 [9, 31]: 27 nmol/L; IC50 [10, 32]: 19 nmol/L; IC50 [11, 33]: 275 nmol/L; IC50 [12, 34]: 115 nmol/L
4 | CC[C@@]1(O)C(=O)OCc2c1cc1n(c2=O)Cc2c-1nc1ccc(Cl)cc1c2CN [Compound 2c] | 3.9 nmol/L | 6 nmol/L | 1.7 nmol/L | 3 nmol/L | 8 nmol/L | 19 nmol/L | 5 nmol/L | 45 nmol/L | 3 nmol/L | 3.3 nmol/L | 6 nmol/L | 21 nmol/L |  |  |  |  |  |  |  |  | 
5 | CC[C@@]1(O)C(=O)OCc2c1cc1n(c2=O)Cc2c-1nc1cc(OC)c(C)c(F)c1c2CN [Compound 2z] | > 1000 nmol/L | > 1000 nmol/L | > 1000 nmol/L | > 1000 nmol/L | > 1000 nmol/L | > 1000 nmol/L | > 1000 nmol/L | > 1000 nmol/L | > 1000 nmol/L | > 1000 nmol/L | > 1000 nmol/L | > 1000 nmol/L |  |  |  |  |  |  |  |  | 
6 | CC[C@@]1(O)C(=O)OCc2c1cc1n(c2=O)Cc2c-1nc1cc3c(cc1c2CNCC(O)CN1CCCCC1)OCO3 (stereo partly drawn) [Compound 7g] |  |  |  |  |  |  |  |  |  |  |  |  | 18 nmol/L | 33 nmol/L | 8 nmol/L | 8 nmol/L | 29 nmol/L | 29 nmol/L | 14 nmol/L | 486 nmol/L | IC50 [9, 31]: 18 nmol/L; IC50 [10, 32]: 14 nmol/L; IC50 [11, 33]: 116 nmol/L; IC50 [12, 34]: 56 nmol/L
